Among the data in patent publication US6703385B1, “Tricyclic compounds having sPLA2-inhibitory activities” (Shionogi & Co., Ltd., priority 1999, dated 2004) are IC50 and melting point values, retold here.

One series addresses T1, type II sPLA2 (Homo sapiens, UniProt P14555).
T1 sequence (P14555 21-144): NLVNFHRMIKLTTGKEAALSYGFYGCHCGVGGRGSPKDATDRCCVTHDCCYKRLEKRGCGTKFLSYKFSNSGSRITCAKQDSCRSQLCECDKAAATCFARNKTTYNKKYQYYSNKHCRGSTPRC
The series is described as follows: Inhibition test of human secretory phospholipase A2, chromogenic assay, type II enzyme. Conditions: Inhibitory activity of type II sPLA2. It is filed as biochemical. The source says: In order to identify and evaluate an inhibitor of recombinant human secretory phospholipase A2, the following chromogenic assay is utilized. The assay herein has been applied for high volume screening wherein 96 well microtiterplate is used. A general explanation for such assay is described in “Analysis of Human Synovial Fluid Phospholipase A2 on Short Chain Phosphatidylcholine-Mixed Micelles: Development of a Spectrophotometric Assay Suitable for a Microtiterplate Reader” (Analytical Biochemistry, 204, pp 190-197, 1992 by Laure. J. Reynolds. Lori L. Hughes and Edward A. Dennis: the disclosure of which is incorporated herein for reference.
Type II enzyme: 1 mg of sPLA2 is dissolved in 1 ml of an enzyme buffer. Thereafter, the solution is maintained at 4° C. In the assay, 5 μl of the solution is diluted with 1995 μl of the reaction buffer to be used.
1) 0.106 ml of the substrate solution is put in a centrifugal tube, and nitrogen gas is jetted to remove the solvent. 0.54 ml of Triton-X 100 is added thereto, the mixture is stirred, thereafter it is sonified in a bath type sonification to dissolve. To the resulting product are added 17.8 ml of the reaction buffer and 0.46 ml of DTNB, and 0.18 ml each of the admixture is poured to wells of the 96 well microtiterplate.
2) 10 μl of a test compound (or solvent blank) are added in accordance with alignment of plates which has been previously set.
3) Incubation is effected at 40° C. for 15 minutes.
4) 90 ng/well in case of human type I enzyme, 50 ng/well in case of human type II enzyme, 40 μl/well in case of human type V enzyme, 15 μl/well in case of human type X enzyme were reacted.
5) Changes in absorbancy for 30 minutes for humane type I, type II, and type X enzyme and for 45 min for human type V enzyme, are measured by a plate reader, and inhibition activity was calculated (OD: 405 nm).
6) IC50 was determined by plotting log concentration with respect to inhibition values within 10% to 90% inhibiting range.

SMILES strings stand for the structures.

The molecule `CC(=O)N1CCc2c(C(=O)C(N)=O)c3c(OCC(=O)O)cccn3c2C1c1ccccc1` (stereo not drawn) [Compound I-6] gave an IC50 against type II sPLA2 of 4570 nM.
As for `COC(=O)COc1cccn2c3c(c(C(=O)C(N)=O)c12)CCC=C3c1ccccc1` [Compound I-1], the melting point was 225 to 227 °C (dec.). The half-inhibitory concentration (IC50) against type II sPLA2 turned out to be 789 nM.
The like results for `NC(=O)C(=O)c1c2c(n3cccc(OCC(=O)O)c13)C(c1ccccc1)=CCC2` [Compound I-2] were, in that order, 228 to 230 °C (dec.) and 45 nM.
The molecule `NC(=O)C(=O)c1c2scc(-c3ccccc3)c2n2cccc(OCC(=O)O)c12` [Compound I-12] had an IC50 on type II sPLA2 of 178 nM.
On the same count and under the same terms, next, `NC(=O)C(=O)c1c2c(n3cccc(OCC(=O)O)c13)C(c1ccccc1)N(C(=O)C(F)(F)F)CC2` (stereo not drawn) [Compound I-8]: 262 nM; `NC(=O)C(=O)c1c2c(n3cccc(OCC(=O)O)c13)C(c1ccccc1)CCC2` (stereo not drawn) [Compound I-4]: 54 nM.
Take `COC(=O)COc1cccn2c3c(c(C(=O)C(N)=O)c12)CCCC3c1ccccc1` (stereo not drawn) [Compound I-3]: the melting point was 198 to 199 °C. The molecule further came in with an IC50 against type II sPLA2 of 1590 nM.
`NC(=O)C(=O)c1c2c(n3ccnc(OCC(=O)O)c13)C(c1ccccc1)=CCC2` [Compound I-14] showed an IC50 against type II sPLA2 of 34 nM.
The molecule `COC(=O)COc1cccn2c1c(C(=O)C(N)=O)c1scc(-c3ccccc3)c12` [Compound I-11] registered an IC50 against type II sPLA2 of 5680 nM.
